Test results as given in PubChem BioAssay (NCI).
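Cells were grown in 96-well plates and exposed to each compound for 48 hours at five concentrations; endpoints were interpolated linearly between bracketing concentrations, or set to the highest concentration if not reached. Definition used: TGI = concentration required for complete inhibition of growth.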

Assays:
Assay in all cases: DTP human tumour cell line panel, 48 h
786-0 renal = system: 786-0 renal
U251 CNS = system: U251 CNS
NCI-H460 lung = system: NCI-H460 lung
NCI-H522 lung = system: NCI-H522 lung
IGROV1 ovarian = system: IGROV1 ovarian
SNB-19 CNS = system: SNB-19 CNS
HOP-62 NSCLC = system: HOP-62 NSCLC
LXFL 529 NSCLC = system: LXFL 529 NSCLC
SK-OV-3 ovarian = system: SK-OV-3 ovarian
HCT-116 colon = system: HCT-116 colon
TK-10 renal = system: TK-10 renal
RXF 393 renal = system: RXF 393 renal
K-562 leukemia = system: K-562 leukemia
SK-MEL-28 melanoma = system: SK-MEL-28 melanoma
UO-31 renal = system: UO-31 renal
SR leukemia = system: SR leukemia
A549 NSCLC = system: A549 NSCLC
UACC-62 melanoma = system: UACC-62 melanoma
SN12C renal = system: SN12C renal
CCRF-CEM leukemia = system: CCRF-CEM leukemia
M14 melanoma = system: M14 melanoma
MOLT-4 leukemia = system: MOLT-4 leukemia
SNB-75 CNS = system: SNB-75 CNS
LOX IMVI melanoma = system: LOX IMVI melanoma
OVCAR-8 ovarian = system: OVCAR-8 ovarian
MALME-3M melanoma = system: MALME-3M melanoma
OVCAR-3 ovarian = system: OVCAR-3 ovarian
SF-539 CNS = system: SF-539 CNS
SNB-78 CNS = system: SNB-78 CNS
DMS 114 small cell lung = system: DMS 114 small cell lung
NCI-H23 lung = system: NCI-H23 lung
HOP-92 NSCLC = system: HOP-92 NSCLC
HCC-2998 colon = system: HCC-2998 colon
DMS 273 small cell lung = system: DMS 273 small cell lung
SF-295 CNS = system: SF-295 CNS
SK-MEL-5 melanoma = system: SK-MEL-5 melanoma
SK-MEL-2 melanoma = system: SK-MEL-2 melanoma
COLO 205 colon = system: COLO 205 colon
SF-268 CNS = system: SF-268 CNS
HT29 colon = system: HT29 colon
DLD-1 colon = system: DLD-1 colon
CAKI-1 renal = system: CAKI-1 renal
OVCAR-4 ovarian = system: OVCAR-4 ovarian
NCI-H226 lung = system: NCI-H226 lung
KM12 colon = system: KM12 colon
OVCAR-5 ovarian = system: OVCAR-5 ovarian
SW-620 colon = system: SW-620 colon
ACHN renal = system: ACHN renal
EKVX NSCLC = system: EKVX NSCLC
XF 498 CNS = system: XF 498 CNS
HCT-15 colon = system: HCT-15 colon
RPMI-8226 leukemia = system: RPMI-8226 leukemia
M19-MEL melanoma = system: M19-MEL melanoma
A498 renal = system: A498 renal
KM20L2 colon = system: KM20L2 colon
UACC-257 melanoma = system: UACC-257 melanoma

With `O=C(Nc1ccccc1-c1nn(CO)c(=S)n(CO)c1=O)C(F)(F)F` the TGI (786-0 renal) was > 100 µM, the TGI (U251 CNS) was > 100 µM and the TGI (NCI-H460 lung) was > 100 µM. The TGI (NCI-H522 lung) was > 100 µM, the TGI (IGROV1 ovarian) was > 100 µM and the TGI (SNB-19 CNS) was > 100 µM. The TGI (HOP-62 NSCLC) was > 100 µM, the TGI (LXFL 529 NSCLC) was > 100 µM and the TGI (SK-OV-3 ovarian) was > 100 µM. For the same compound, the TGI (HCT-116 colon) was > 100 µM, the TGI (TK-10 renal) was > 100 µM and the TGI (RXF 393 renal) was > 100 µM. The TGI (K-562 leukemia) was > 100 µM, the TGI (SK-MEL-28 melanoma) was > 100 µM and the TGI (UO-31 renal) was > 100 µM. The TGI (SR leukemia) was > 100 µM, the TGI (A549 NSCLC) was > 100 µM and the TGI (UACC-62 melanoma) was > 100 µM. The TGI (SN12C renal) was > 100 µM, the TGI (CCRF-CEM leukemia) was > 100 µM and the TGI (M14 melanoma) was > 100 µM. The TGI (MOLT-4 leukemia) was > 100 µM, the TGI (SNB-75 CNS) was > 100 µM and the TGI (LOX IMVI melanoma) was > 100 µM. For the same compound, the TGI (OVCAR-8 ovarian) was > 100 µM, the TGI (MALME-3M melanoma) was > 100 µM and the TGI (OVCAR-3 ovarian) was > 100 µM. For the same compound, the TGI (SF-539 CNS) was > 100 µM, the TGI (SNB-78 CNS) was > 100 µM and the TGI (DMS 114 small cell lung) was > 100 µM. For the same compound, the TGI (NCI-H23 lung) was > 100 µM, the TGI (HOP-92 NSCLC) was > 100 µM and the TGI (HCC-2998 colon) was > 100 µM. The TGI (DMS 273 small cell lung) was > 100 µM, the TGI (SF-295 CNS) was > 100 µM and the TGI (SK-MEL-5 melanoma) was > 100 µM. For the same compound, the TGI (SK-MEL-2 melanoma) was > 100 µM, the TGI (COLO 205 colon) was > 100 µM and the TGI (SF-268 CNS) was > 100 µM. The TGI (HT29 colon) was > 100 µM, the TGI (DLD-1 colon) was > 100 µM and the TGI (CAKI-1 renal) was > 100 µM. The TGI (OVCAR-4 ovarian) was > 100 µM, the TGI (NCI-H226 lung) was > 100 µM and the TGI (KM12 colon) was > 100 µM. The TGI (OVCAR-5 ovarian) was > 100 µM, the TGI (SW-620 colon) was > 100 µM and the TGI (ACHN renal) was > 100 µM. For the same compound, the TGI (EKVX NSCLC) was > 100 µM and the TGI (XF 498 CNS) was > 100 µM.

For `N=c1oc2c(O)c(O)ccc2cc1C(N)=O`, the TGI (786-0 renal) was 25.3 µM, the TGI (U251 CNS) was > 100 µM and the TGI (NCI-H460 lung) was > 100 µM. For the same compound, the TGI (NCI-H522 lung) was > 100 µM, the TGI (IGROV1 ovarian) was > 100 µM and the TGI (SNB-19 CNS) was > 100 µM. For the same compound, the TGI (HOP-62 NSCLC) was > 100 µM, the TGI (LXFL 529 NSCLC) was 93.1 µM and the TGI (SK-OV-3 ovarian) was > 100 µM. For the same compound, the TGI (HCT-116 colon) was > 100 µM, the TGI (TK-10 renal) was > 100 µM and the TGI (RXF 393 renal) was > 100 µM. For the same compound, the TGI (K-562 leukemia) was 36.4 µM, the TGI (HCT-15 colon) was > 100 µM and the TGI (SK-MEL-28 melanoma) was > 100 µM. For the same compound, the TGI (UO-31 renal) was > 100 µM, the TGI (A549 NSCLC) was > 100 µM and the TGI (RPMI-8226 leukemia) was > 100 µM. The TGI (M19-MEL melanoma) was 44.8 µM, the TGI (UACC-62 melanoma) was > 100 µM and the TGI (SN12C renal) was > 100 µM. The TGI (CCRF-CEM leukemia) was 47 µM, the TGI (M14 melanoma) was > 100 µM and the TGI (MOLT-4 leukemia) was 75.2 µM. For the same compound, the TGI (SNB-75 CNS) was 97.6 µM, the TGI (OVCAR-8 ovarian) was 50.9 µM and the TGI (MALME-3M melanoma) was > 100 µM. For the same compound, the TGI (OVCAR-3 ovarian) was > 100 µM, the TGI (SF-539 CNS) was > 100 µM and the TGI (SNB-78 CNS) was > 100 µM. For the same compound, the TGI (DMS 114 small cell lung) was > 100 µM, the TGI (NCI-H23 lung) was > 100 µM and the TGI (HOP-92 NSCLC) was > 100 µM. For the same compound, the TGI (A498 renal) was > 100 µM, the TGI (KM20L2 colon) was > 100 µM and the TGI (UACC-257 melanoma) was > 100 µM. For the same compound, the TGI (HCC-2998 colon) was > 100 µM, the TGI (DMS 273 small cell lung) was > 100 µM and the TGI (SF-295 CNS) was 94.5 µM. For the same compound, the TGI (SK-MEL-2 melanoma) was > 100 µM, the TGI (COLO 205 colon) was > 100 µM and the TGI (SF-268 CNS) was > 100 µM. The TGI (HT29 colon) was > 100 µM, the TGI (DLD-1 colon) was > 100 µM and the TGI (CAKI-1 renal) was > 100 µM. The TGI (OVCAR-4 ovarian) was 31.7 µM, the TGI (NCI-H226 lung) was > 100 µM and the TGI (KM12 colon) was > 100 µM. For the same compound, the TGI (OVCAR-5 ovarian) was > 100 µM, the TGI (SW-620 colon) was 83.4 µM and the TGI (ACHN renal) was > 100 µM. For the same compound, the TGI (EKVX NSCLC) was > 100 µM and the TGI (XF 498 CNS) was 53 µM.
